# PubChem BioAssay AID1963984 (Molecular Pharmacology Branch, DTP, NCI, 2024)
# Test system: 233499-124-R-J3-PDC spheroids with HUVEC/MSC, viability
# Test: Anticancer human tumor 233499-124-R-J3-PDC patient-derived colon adenocarcinoma cell line growth inhibition [PI3K]
# Settings: for IC50: curve of first compound; for viability, T/C: stronger effect = lower value
# Text: Combinatorial screen of targeted agents with the PI3K inhibitors inavolisib, alpelisib, duvelisib, and copanlisib in multi-cell type tumor spheroids
# A high-throughput screen of multi-cell type tumor spheroids was designed to identify active combinations of targeted small molecules and PI3K pathway inhibitors. Complex spheroids include a stromal component modeled by human endothelial cells (HUVEC) and fibroblasts modeled by human mesenchymal stem cells (MSCs). The concentration ranges selected for each drug and investigational agent were based upon clinically achievable concentrations if the clinical Cmax of the agent was known.
# Compounds. The drugs and investigational agents: inavolisib (NSC800729), alpelisib (NSC765974), duvelisib (NSC772469), copanlisib (NSC816437), ipatasertib (NSC767898), afuresertib (NSC778305), talazoparib (NSC767125), sapanisertib (NSC764658), selumetinib (NSC741078), tovorafenib (DAY101, NSC766906), vemurafenib (NSC761431), ravoxertinib (NSC781343), sotorasib (NSC818433), MRTX1133 (NSC 836407), abemaciclib (NSC 768073), palbociclib (NSC758247), venetoclax (NSC 766270), SY5609 (NSC837396), enzalutamide (NSC755605), and darolutamide (NSC825331), were obtained from the National Cancer Institute (NCI) Developmental Therapeutics Program Chemical Repository. The FDA-approved anticancer drug set is available from the NCI Developmental Therapeutics Program. […] The stock solutions were prepared in dimethyl sulfoxide (DMSO, Sigma-Aldrich, St. Louis, MO, cat. D2650) at 800-fold the tested concentration and stored at -70 degrees C prior to their use. All drugs and investigational agents were tested over a range starting from a high concentration at or near the clinical Cmax and decreasing in half-log increments. If the clinical Cmax for an agent had not been determined, the highest concentration tested was 10 microM.
# Cell Culture. All cells were maintained in an incubator at 37 degrees C and 5% CO2 with 95% humidity. The PDC lines were cultured according to standard operating procedures established by the NCI PDMR (https://pdmr.cancer.gov/sops/default.htm). All PDCs were thawed and cultured in Matrigel-coated flasks prepared with a working solution of 1X Ham's F-12 nutrient mix, without supplementation (Invitrogen, Waltham, MA, cat. 11765054), 100 U/mL penicillin-streptomycin (Invitrogen, cat. 15140122), and 2.5% Matrigel (Corning Inc., Corning, NY, cat. 354248) for the first three passages. The 354836-022-R-J1-PDC, 475296-252-R-J1-PDC, and 997726-040-R-J2-PDC lines were cultured in 6A media, which includes advanced DMEM/F-12 (Thermo Fisher Scientific, cat. 12634028), 10 mM HEPES (Thermo Fisher Scientific, cat. 15630080), 1X GlutaMAX supplement (Thermo Fisher Scientific, cat. 35050061), 0.1 mg/mL primocin (InvivoGen, San Diego, CA, cat. ant-pm-2), 10% defined fetal bovine serum, heat inactivated (HyClone Laboratories Inc., Logan, UT, cat. SH30070.03HI), 50% L-WRN conditioned media (ATCC, cat. CRL-3276), 1.25 mM N-Acetyl-L-cysteine (Sigma-Aldrich, cat. A9165), 10 mM nicotinamide (Sigma-Aldrich, cat. N0636), 1X B-27 supplement (Thermo Fisher Scientific, cat. 17504044), 1X N-2 supplement (Thermo Fisher Scientific, cat. 17502048), and 10 microM Y-27632 dihydrochloride (Tocris Bioscience, Bristol, United Kingdom, cat. 1254). The 624824-186-R-J2-PDC line was cultured in 6C/Colon 1B media, which includes all 6A media components plus 50 ng/mL human EGF recombinant protein (Thermo Fisher Scientific, cat. PHG0311). […]
# 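Further: spheroids exposed to agents for seven days before readout.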
# 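Wherever viability, T/C is given: percent viability relative to DMSO vehicle control taken as 100%.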
compound,measurement,setting,value
Cn1nccc1Nc1nccc(-c2ccn(C(CO)c3ccc(Cl)c(F)c3)c(=O)c2)n1 (configuration not stated) + COc1c(OCCCN2CCOCC2)ccc2c3n(c(=NC(=O)c4cnc(N)nc4)nc12)CCN3,IC50,second compound 0.00316 µM,> 10000 nM
same,IC50,second compound 0.01 µM,> 10000 nM
same,IC50,second compound 0.0316 µM,> 10000 nM
same,IC50,second compound 0.1 µM,791 nM
same,IC50,second compound 0.316 µM,< 31.6 nM
same,IC50,second compound 1 µM,< 31.6 nM
same,"viability, T/C","second compound 0.00316 µM, first compound 0.0316 µM",90.5%
same,"viability, T/C","second compound 0.00316 µM, first compound 0.1 µM",86.6%
same,"viability, T/C","second compound 0.00316 µM, first compound 0.316 µM",86.4%
same,"viability, T/C","second compound 0.00316 µM, first compound 1 µM",91.4%
same,"viability, T/C","second compound 0.00316 µM, first compound 3.16 µM",80.1%
same,"viability, T/C","second compound 0.00316 µM, first compound 10 µM",70.1%
same,"viability, T/C","second compound 0.01 µM, first compound 0.0316 µM",90%
same,"viability, T/C","second compound 0.01 µM, first compound 0.1 µM",78.2%
same,"viability, T/C","second compound 0.01 µM, first compound 0.316 µM",67.7%
same,"viability, T/C","second compound 0.01 µM, first compound 1 µM",78.3%
same,"viability, T/C","second compound 0.01 µM, first compound 3.16 µM",67%
same,"viability, T/C","second compound 0.01 µM, first compound 10 µM",56.3%
same,"viability, T/C","second compound 0.0316 µM, first compound 0.0316 µM",92.1%
same,"viability, T/C","second compound 0.0316 µM, first compound 0.1 µM",75.9%
same,"viability, T/C","second compound 0.0316 µM, first compound 0.316 µM",70.6%
same,"viability, T/C","second compound 0.0316 µM, first compound 1 µM",65.9%
same,"viability, T/C","second compound 0.0316 µM, first compound 3.16 µM",53.7%
same,"viability, T/C","second compound 0.0316 µM, first compound 10 µM",54.3%
same,"viability, T/C","second compound 0.1 µM, first compound 0.0316 µM",84.9%
same,"viability, T/C","second compound 0.1 µM, first compound 0.1 µM",72%
same,"viability, T/C","second compound 0.1 µM, first compound 0.316 µM",58.4%
same,"viability, T/C","second compound 0.1 µM, first compound 1 µM",46.2%
same,"viability, T/C","second compound 0.1 µM, first compound 3.16 µM",40.3%
same,"viability, T/C","second compound 0.1 µM, first compound 10 µM",24.4%
same,"viability, T/C","second compound 0.316 µM, first compound 0.0316 µM",20.4%
same,"viability, T/C","second compound 0.316 µM, first compound 0.1 µM",37.7%
same,"viability, T/C","second compound 0.316 µM, first compound 0.316 µM",27.1%
same,"viability, T/C","second compound 0.316 µM, first compound 1 µM",14.2%
same,"viability, T/C","second compound 0.316 µM, first compound 3.16 µM",12%
same,"viability, T/C","second compound 0.316 µM, first compound 10 µM",9.88%
same,"viability, T/C","second compound 1 µM, first compound 0.0316 µM",5.63%
same,"viability, T/C","second compound 1 µM, first compound 0.1 µM",5.4%
same,"viability, T/C","second compound 1 µM, first compound 0.316 µM",6.24%
same,"viability, T/C","second compound 1 µM, first compound 1 µM",5.85%
same,"viability, T/C","second compound 1 µM, first compound 3.16 µM",2.1%
same,"viability, T/C","second compound 1 µM, first compound 10 µM",1.53%
CCN1CCN(Cc2ccc(Nc3ncc(F)c(-c4cc(F)c5nc(C)n(C(C)C)c5c4)n3)nc2)CC1,"viability, T/C",compound 0.01 µM,88.5% [middle of 4 runs]
same,"viability, T/C",compound 0.0316 µM,85.6% [middle of 4 runs]
same,"viability, T/C",compound 0.1 µM,93.8% [middle of 4 runs]
same,"viability, T/C",compound 0.316 µM,58.9% [middle of 4 runs]
same,"viability, T/C",compound 1 µM,38.2% [middle of 4 runs]
